This is an account of results in patent publication US12528802B2, “Heterocyclic compound” (Takeda Pharmaceutical Company Limited, priority 2019, dated 2026).

For this test, the target named is T1, glucosylceramide synthase (Homo sapiens, UniProt Q16739).
T1 construct: made in house; host or cells: Expi293F cells (transient expression, pcDNA3.3-TOPO vector); microsome fraction used as enzyme source
T1 sequence (Q16739 1-394): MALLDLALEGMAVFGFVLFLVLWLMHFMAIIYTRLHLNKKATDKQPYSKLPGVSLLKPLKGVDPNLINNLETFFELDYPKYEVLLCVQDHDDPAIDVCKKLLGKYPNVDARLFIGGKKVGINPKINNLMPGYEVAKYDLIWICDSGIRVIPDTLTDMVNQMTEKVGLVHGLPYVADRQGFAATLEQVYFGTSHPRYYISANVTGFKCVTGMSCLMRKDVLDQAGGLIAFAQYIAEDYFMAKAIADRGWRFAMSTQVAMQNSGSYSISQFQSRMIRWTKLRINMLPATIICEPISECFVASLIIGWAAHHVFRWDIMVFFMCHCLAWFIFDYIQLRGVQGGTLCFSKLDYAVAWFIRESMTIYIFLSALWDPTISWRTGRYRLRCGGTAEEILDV
As to the kind of experiment: Glucosylceramide synthase (GCS) enzyme assay, microsome fraction, C8 glucosylceramide quantified by Rapidfire MS/MS. To be noted: test compound 10 μM; 1.7 μM UDP-glucose, 3 μM C8 ceramide; room temperature 60 min; read-out: GCS enzyme inhibitory rate at 10 μM (%) (% of control). Type of test: biochemical. The procedure, abridged: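 Test compound, 10 μM final, was run against human GCS from transfected Expi293F microsome fractions, using substrate solution of 6 μM C8 ceramide (in DOPC liposomes) plus 3.4 μM UDP-glucose, pH 7.5 Tris buffer, 60 min, room temperature. Product C8 glucosylceramide measured by Rapidfire MS/MS against an internal standard, % inhibition referenced to no-enzyme and DMSO wells.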

Regarding `CC(C)(O)COc1cnc(N2Cc3c(ccnc3-c3ccccc3OCC(F)(F)F)C2=O)cn1` [Example 298, 2-[5-(2-hydroxy-2-methylpropoxy)pyrazin-2-yl]-4-[2-(2,2,2-trifluoroethoxy)phenyl]-2,3-dihydro-1H-pyrrolo[3,4-c]pyridin-1-one], the inhibition at 10 µM was found to be 98%.

Regarding `CC(O)c1ccc(N2Cc3c(ccnc3-c3ccc(F)cc3OCC(F)(F)F)C2=O)cc1` (racemic) [Example 282, rac-4-[4-fluoro-2-(2,2,2-trifluoroethoxy)phenyl]-2-[4-(1-hydroxyethyl)phenyl]-2,3-dihydro-1H-pyrrolo[3,4-c] pyridin-1-one], the inhibition at 10 µM was 99%.

Regarding `O=C1c2ccnc(-c3ccccc3OCC(F)(F)F)c2CN1c1ccc(C2(O)CC2)cn1` [Example 265, 2-[5-(1-hydroxycyclopropyl)pyridin-2-yl]-4-[2-(2,2,2-trifluoroethoxy)phenyl]-2,3-dihydro-1H-pyrrolo[3,4-c]pyridin-1-one], the inhibition at 10 µM came to 100%.

Take `CC(C)(O)c1ccc(N2Cc3c(ccnc3-c3ccccc3OCC(F)(F)F)C2=O)cc1F` [Example 262, 2-[3-fluoro-4-(2-hydroxypropan-2-yl)phenyl]-4-[2-(2,2,2-trifluoroethoxy)phenyl]-2,3-dihydro-1H-pyrrolo[3,4-c]pyridin-1-one]: the inhibition at 10 µM was 100%.

For `CC(C)(F)c1cc2c(c(-c3ccc(F)cc3OCC(F)(F)F)n1)CN(c1ccc(F)cc1)C2=O` [Example 385, 2-(4-fluorophenyl)-6-(2-fluoropropan-2-yl)-4-[4-fluoro-2-(2,2,2-trifluoroethoxy)phenyl]-2,3-dihydro-1H-pyrrolo[3,4-c]pyridin-1-one], the inhibition at 10 µM was found to be 99%.

As to `CC(C)(O)COc1ccc(N2Cc3c(ccnc3-c3ccccc3OCC(F)(F)F)C2=O)cc1` [Example 195, 2-[4-(2-hydroxy-2-methylpropoxy)phenyl]-4-[2-(2,2,2-trifluoroethoxy)phenyl]-2,3-dihydro-1H-pyrrolo[3,4-c]pyridin-1-one], the inhibition at 10 µM is 100%.

For the compound `O=C1c2ccnc(-c3ccccc3OC(F)F)c2CN1c1ccc(C(F)(F)F)cn1` [Example 67, 4-[2-(difluoromethoxy)phenyl]-2-[5-(trifluoromethyl)pyridin-2-yl]-2,3-dihydro-1H-pyrrolo[3,4-c]pyridin-1-one], the inhibition at 10 µM came out at 95%.

`O=C1c2ccnc(-c3ccc(F)cc3OCC(F)(F)F)c2CN1c1ccc(C(O)(C(F)(F)F)C(F)(F)F)cc1` [Example 270, 4-[4-fluoro-2-(2,2,2-trifluoroethoxy)phenyl]-2-[4-(1,1,1,3,3,3-hexafluoro-2-hydroxypropan-2-yl)phenyl]-2,3-dihydro-1H-pyrrolo[3,4-c]pyridin-1-one]: the inhibition at 10 µM worked out at 99%.

As to `Cn1nc2c(c1-c1ccccc1OCC(F)(F)F)CN(c1ccc(F)cc1)C2` [Example 206, 5-(4-fluorophenyl)-2-methyl-3-[2-(2,2,2-trifluoroethoxy)phenyl]-2,4,5,6-tetrahydropyrrolo[3,4-c]pyrazole], the inhibition at 10 µM is 66%.

In the case of `COc1ccccc1-c1nccc2c1CN(c1ccc(C#N)cc1)C2=O` [Example 18, 4-[4-(2-methoxyphenyl)-1-oxo-1,3-dihydro-2H-pyrrolo[3,4-c]pyridin-2-yl]benzonitrile], the inhibition at 10 µM was determined as 56%.

As to `O=C1c2ccnc(-c3ccccc3OC(F)F)c2CN1c1ccc(OC(F)F)cn1` [Example 64, 4-[2-(difluoromethoxy)phenyl]-2-[5-(difluoromethoxy)pyridin-2-yl]-2,3-dihydro-1H-pyrrolo[3,4-c]pyridin-1-one], the inhibition at 10 µM is 96%.

Consider `COCCOc1cc(F)ccc1-c1nccc2c1CN(c1ccc(OC(F)F)nc1)C2=O` [Example 113, 2-[6-(difluoromethoxy)pyridin-3-yl]-4-[4-fluoro-2-(2-methoxyethoxy)phenyl]-2,3-dihydro-1H-pyrrolo[3,4-c]pyridin-1-one], for which the inhibition at 10 µM was determined as 66%.

Regarding `CN(C)C(=O)c1ccc(N2Cc3c(ccnc3-c3ccc(F)cc3OCC(F)(F)F)C2=O)cc1` [Example 102, 4-{4-[4-fluoro-2-(2,2,2-trifluoroethoxy)phenyl]-1-oxo-1,3-dihydro-2H-pyrrolo[3,4-c]pyridin-2-yl}-N,N-dimethylbenzamide], the inhibition at 10 µM turned out to be 90%.

In the case of `CC(C)(O)C(F)(F)c1ccc(N2Cc3c(ccnc3-c3ccncc3OCC(F)(F)F)C2=O)cc1` [Example 283, 2-[4-(1,1-difluoro-2-hydroxy-2-methylpropyl)phenyl]-4-[3-(2,2,2-trifluoroethoxy)pyridin-4-yl]-2,3-dihydro-1H-pyrrolo[3,4-c] pyridin-1-one], the inhibition at 10 µM stood at 94%.

Take `O=C1c2ccnc(-c3ccc(F)cc3OCC(F)(F)F)c2CN1c1cnn(CC(F)(F)F)c1` [Example 83, 4-[4-fluoro-2-(2,2,2-trifluoroethoxy)phenyl]-2-[1-(2,2,2-trifluoroethyl)-1H-pyrazol-4-yl]-2,3-dihydro-1H-pyrrolo[3,4-c]pyridin-1-one]: the inhibition at 10 µM came to 91%.

For `O=C1c2ccnc(-c3ccccc3OCC(F)(F)F)c2CN1c1ccc(C2(O)CCC2)nc1` [Example 203, 2-[6-(1-hydroxycyclobutyl)pyridin-3-yl]-4-[2-(2,2,2-trifluoroethoxy)phenyl]-2,3-dihydro-1H-pyrrolo[3,4-c]pyridin-1-one], the inhibition at 10 µM is 98%.

For the compound `O=C1c2ccnc(-c3ccncc3OCC(F)(F)F)c2CN1c1ccc(C2(O)CCC2)cc1` [Example 210, 2-[4-(1-hydroxycyclobutyl)phenyl]-4-[3-(2,2,2-trifluoroethoxy)pyridin-4-yl]-2,3-dihydro-1H-pyrrolo[3,4-c]pyridin-1-one], the inhibition at 10 µM turned out to be 99%.

`O=C1c2ccnc(-c3ccccc3OC(F)F)c2CN1c1ccc(F)cn1` [Example 63, 4-[2-(difluoromethoxy)phenyl]-2-(5-fluoropyridin-2-yl)-2,3-dihydro-1H-pyrrolo[3,4-c]pyridin-1-one]: the inhibition at 10 µM came to 96%.

As for `CC(C)(O)COc1ccc(N2Cc3c(ccnc3-c3ccc(F)cc3OCC(F)(F)F)C2=O)nc1` [Example 255, 4-[4-fluoro-2-(2,2,2-trifluoroethoxy)phenyl]-2-[5-(2-hydroxy-2-methylpropoxy)pyridin-2-yl]-2,3-dihydro-1H-pyrrolo[3,4-c]pyridin-1-one], the inhibition at 10 µM turned out to be 100%.

On to `CC(C)(O)c1cc2c(c(-c3ccccc3OCC(F)F)n1)CN(c1ccc(OCC(F)(F)F)cc1)C2=O` [Example 354, 4-[2-(2,2-difluoroethoxy)phenyl]-6-(2-hydroxypropan-2-yl)-2-[4-(2,2,2-trifluoroethoxy)phenyl]-2,3-dihydro-1H-pyrrolo[3,4-c]pyridin-1-one], for which the inhibition at 10 µM was found to be 100%.

Take `O=C(c1ccc(N2Cc3c(ccnc3-c3ccc(F)cc3OCC(F)(F)F)C2=O)cc1)N1CCC1` [Example 166, 2-[4-(azetidine-1-carbonyl)phenyl]-4-[4-fluoro-2-(2,2,2-trifluoroethoxy)phenyl]-2,3-dihydro-1H-pyrrolo[3,4-c]pyridin-1-one]: the inhibition at 10 µM amounted to 87%.

Take `CC(C)(C)[Si](C)(C)OC1(c2ccc(N3Cc4c(ccnc4-c4ccc(F)cc4OCC(F)(F)F)C3=O)cc2)CC1` [Example 224, 2-[4-(1-{[tert-butyl(dimethyl)silyl]oxy}-cyclopropyl)phenyl]-4-[4-fluoro-2-(2,2,2-trifluoroethoxy)phenyl]-2,3-dihydro-1H-pyrrolo[3,4-c]pyridin-1-one]: the inhibition at 10 µM worked out at 99%.
